Reference: patent US20140296176A1, “COMBINATION CANCER THERAPY WITH AN HSP90 INHIBITOR AND AN ANTIMETABOLITE” (Synta Pharmaceuticals Corp., priority 2011, published 2014)

Legend:
[1] = tested on: HCT-116 colorectal cancer cells; test: alamarBlue cell viability assay, HCT-116 cells; type: cell-based; details: Homo sapiens, 72 hr drug exposure
Method: (§1) Human HCT-116 colorectal cancer cells (CRC) were purchased from the American Type Culture Collection (Manassas, Va.) and grown in McCoy's 5a media (Sigma), following ATCC recommendations, in the presence of fetal bovine serum (10%), 2 mM L-glutamine and antibiotics (100 IU/ml penicillin and 100 μg/ml streptomycin, Sigma). Cells were maintained at 37° C., 5% CO2 atmosphere.
Cell viability was measured using the alamarBlue assay (Invitrogen). In brief, cells were plated in 96-well plates in triplicate at 5K cells per well and incubated at 37° C., 5% CO2 atmosphere for 24 hr prior to the addition of drug or vehicle (0.3% DMSO) to the culture medium. […] Fluorescence (560EX/590EM nM) was measured with a SpectraMax microplate reader (Molecular Devices) and the resulting data were used to calculate cell viability, normalized to vehicle control.
After HCT-116 cells were exposed to drug for 72 hr, cell viability was measured and results were fit to a four parameter logistic model (XLFit, ID Business Solutions).
(§2) Combinations between ganetespib and fluorouracil were then performed in HCT-116 cells concurrently based on the IC50 for each agent in matrix format with 54 combination pairs for each drug. The combined drugs, as well as each drug alone, were incubated with the cells for 3 days and the surviving fraction of cells relative to control was determined using the alamarBlue assay.

MOLT-4 cells = test: alamarBlue cell viability assay, MOLT-4 cells; type: cell-based; details: Homo sapiens, 72 hr drug exposure, four parameter logistic fit
Method: as §1, with “MOLT-3, MOLT-4 and Jurkat T cell leukemia” for “HCT-116 colorectal cancer”, “cells” for “cells (CRC)”, “RPMI” for “McCoy's 5a media”
Cell viability was measured using the alamarBlue assay (Invitrogen). In brief, cells were plated in 96-well plates in triplicate at 20K, 15K or 15K cells per well for MOLT-3, MOLT-4 or Jurkat cells respectively, and incubated at 37° C., 5% CO2 atmosphere for 24 hr prior to the addition of drug or vehicle (0.3% DMSO) to the culture medium. After 72 hr, 10 μl/well Alamar Blue was added to the wells and incubated for an additional 3 hr at 37° C., 5% CO2 atmosphere. Fluorescence (560EX/590EM nM) was measured with a SpectraMax microplate reader (Molecular Devices) and the resulting data were used to calculate cell viability, normalized to vehicle control.
After MOLT-4 cells were exposed to drug for 72 hr, cell viability was measured and results were fit to a four parameter logistic model (XLFit, ID Business Solutions) shown in FIG. 1.
as §2, with “the nucleoside analog Ara-G” for “fluorouracil”, “MOLT-4” for “HCT-116”, “agent.” for “agent in matrix format with 54 combination pairs for each drug.”

[2] = tested on: KRAS mutant NSCLC cell lines; test: cell viability in panel of KRAS mutant NSCLC cell lines; type: cell-based; details: Homo sapiens; across 15 KRAS mutant NSCLC cell lines in vitro
Method: For combinatorial analysis, cells were seeded in 96-well plates at a predetermined, optimum growth density for 24 h prior to the addition of drug or vehicle to the culture medium. Drug combinations were applied at a non-constant ratio over a range of concentrations for 72 or 96 hours. […] Cell viability was assessed by either AlamarBlue® (Invitrogen, Carlsbad, Calif.) or CellTiter-Glo® assays and normalized to vehicle controls. For each combination study, the level of growth inhibition (fraction affected) is plotted relative to vehicle control. Data are presented as one relevant combination point and the corresponding single agent data for each cell line tested.

[3] = tested on: KRAS substrates, including BRAF and CRAF; test: destabilization of KRAS substrates in KRAS mutant NSCLC cells; type: cell-based, human; details: leading to inactivation of downstream effectors and programmed cell death
[4] = tested on: human KRAS mutant NSCLC tumor xenografts; test: KRAS mutant NSCLC tumor xenografts in vivo; set-up: species or system mouse
[5] = tested on: NSCLC having a KRAS mutation; test: Phase 2 trial with ganetespib; type: in vivo, human; details: at 8 weeks

Row | IC50 [1] | IC50 (MOLT-4 cells) | Compound | IC50 [2] | destabilization of KRAS substrates [3] | growth of tumor xenografts [4] | patients exhibiting tumor shrinkage [5]
1 | ~4500 nM | – | O=c1[nH]cc(F)c(=O)[nH]1 [5-FU, 5-fluorouracil, reference compound] | – | – | – | –
2 | – | ~25 nM | Nc1ccn([C@@H]2O[C@H](CO)[C@@H](O)[C@@H]2O)c(=O)n1 [Ara-C, cytarabine] | – | – | – | –
3 | – | ~2000 nM | COc1nc(N)nc2c1ncn2[C@@H]1O[C@H](CO)[C@@H](O)[C@@H]1O [Ara-G, nelarabine] | – | – | – | –
4 | ~32 nM | ~20 nM | CC(C)c1cc(-c2nnc(O)n2-c2ccc3c(ccn3C)c2)c(O)cc1O [ganetespib, 3-(2,4-dihydroxy-5-isopropyl-phenyl)-4-(1-methyl-indol-5-yl)-5-hydroxy-[1,2,4]triazole] | 24 nM | induced the destabilization | effectively suppressed the growth | > 60%
